B1: Soybeans: primary soybean protease inhibitor, 20.7-22.3 kDa (protein, UniProt P01070 25-205, looked up)
Trypsin inhibitor A: DFVLDNEGNPLENGGTYYILSDITAFGGIRAAPTGNERCPLTVVQSRNELDKGIGTIISSPYRIRFIAEGHPLSLKFDSFAVIMLCVGIPTEWSVVEDLPEGPAVKIGENKDAMDGWFRLERVSDDEFNNYKLVFCPQQAEDDKCGDIGISIDHDDGTRRLVVSKNKPLVVQFQKLDKESL

How the values were obtained:
[1] = system: peroxidase; test: Peroxidase assay in saliva (Amplex Red); type: biochemical; settings: 500 ppm, 30 minutes, FIGS. 26-29
[2] = system: Galactose Oxidase; settings: dilute (3.5%) saliva; FIG. 13
[3] = target: T1, Lysozyme (Homo sapiens, UniProt P61626); test: Lysozyme inhibition saliva screening (fluorescein-labeled Micrococcus lysodeikticus); type: biochemical; settings: for inhibition of Lysozyme: 100% saliva samples (data not shown); for RFU Reading (60 mins): saliva, test compound prepared at 5,000 ppm; for Lysozyme Inhibitor Activity: dilute (3.5%) saliva, FIG. 12
T1 construct: from tissue; host or cells: saliva (3.5% dilute or 100%)
T1 sequence (P61626 19-148): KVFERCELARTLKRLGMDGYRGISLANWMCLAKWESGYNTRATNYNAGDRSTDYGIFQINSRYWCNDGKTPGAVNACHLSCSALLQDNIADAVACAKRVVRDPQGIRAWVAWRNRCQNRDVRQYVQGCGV
Excerpt: At least one assay used for the detection of […], as used herein includes the use of a Micrococcus lysodeikticus labeled with fluorescein. The assay measures lysozyme activity on Micrococcus lysodeikticus cell walls, which are labeled to such a degree that the fluorescence is quenched. Lysozyme activity can relieve this quenching; yielding increased fluorescence that is proportional to lysozyme activity.
For the assay, test compounds are mixed with saliva, prior to the addition of lysozyme substrate. The test compounds, such as GRAS materials, are prepared at a concentration of 5,000 ppm in distilled water. Following this preparation, 50 μl of lysozyme substrate at 1 mg/ml (Molecular Probes EnzChek Lysozyme Assay Kit) that has been pre-heated to 37° C. is added to 50 μl of the test compound. To initiate the assay, 50 μl of a dilute (3.5%) or full strength (100%) saliva solution is added to the mixture. Following the initiation, each mixture is measured at 1 minute intervals using a spectrophotometer (such as Molecular Devices M5 reader) for absorption at 494 nm and fluorescence emission at 518 nm. Temperatures of the mixtures are kept constant at 37° C. during the assay.
A series of GRAS compounds were tested using the Lysozyme assay protocol described above. […] Further details of these five compounds may also be seen in Table 5.

[4] = system: protease; settings: cited from earlier work

| Molecule | peroxidase inhibition [1] | Galactose Oxidase Inhibitor Activity [2] | inhibition of Lysozyme [3] | RFU Reading (60 mins) [3] | Lysozyme Inhibitor Activity [3] | Inhibitory power [4] |
| --- | --- | --- | --- | --- | --- | --- |
| O=C(O)c1ccccc1 [CDI #16, Benzoic acid] | significant peroxidase inhibition capabilities | – | – | – | – | – |
| Cn1c(=O)c2c(ncn2C)n(C)c1=O [CDI #33, Caffeine] | significant peroxidase inhibition capabilities | – | – | – | – | – |
| COc1ccc(O)c(C(C)(C)C)c1 [CDI-039, 3-tert--butyl-hydroxyanisole] | significant peroxidase inhibition capabilities | shown to have Galactose Oxidase Inhibitor Activity | – | – | – | – |
| O=C(O)c1ccccc1 [CDI-40, Benzoic acid] | – | shown to have Galactose Oxidase Inhibitor Activity | shown to inhibit Lysozyme | 35.82 RFU | shown to have Lysozyme Inhibitor Activity | – |
| CC(=O)O [CDI-047, Acetic acid] | – | shown to have Galactose Oxidase Inhibitor Activity | shown to inhibit Lysozyme | 33.53 RFU | shown to have Lysozyme Inhibitor Activity | – |
| B1 | – | – | – | – | – | 1.2 times times weight |
